Calls of active or inactive are those of the source.
Assays:
[1] = biological target: T1, Septin-9 (Homo sapiens, UniProt Q9UHD8)
T1 sequence (Q9UHD8 whole entry): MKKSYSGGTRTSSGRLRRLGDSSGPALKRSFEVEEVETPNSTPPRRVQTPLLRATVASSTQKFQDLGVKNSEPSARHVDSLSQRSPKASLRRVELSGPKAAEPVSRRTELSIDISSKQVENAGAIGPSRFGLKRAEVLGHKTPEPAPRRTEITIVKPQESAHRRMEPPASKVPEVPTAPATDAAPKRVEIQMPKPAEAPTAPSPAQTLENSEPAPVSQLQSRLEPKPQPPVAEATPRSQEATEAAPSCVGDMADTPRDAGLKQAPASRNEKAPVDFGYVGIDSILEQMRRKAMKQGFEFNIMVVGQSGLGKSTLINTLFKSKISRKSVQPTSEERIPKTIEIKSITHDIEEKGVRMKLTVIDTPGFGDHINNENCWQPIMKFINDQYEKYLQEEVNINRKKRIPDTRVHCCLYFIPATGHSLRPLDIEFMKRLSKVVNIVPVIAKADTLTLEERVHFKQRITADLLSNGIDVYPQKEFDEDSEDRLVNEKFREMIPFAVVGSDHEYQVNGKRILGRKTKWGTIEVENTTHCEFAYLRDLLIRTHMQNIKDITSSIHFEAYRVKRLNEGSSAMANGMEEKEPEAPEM

[2] = biological target: T2, Dual specificity mitogen-activated protein kinase kinase 6 (Homo sapiens, UniProt P52564)
T2 sequence (P52564 whole entry): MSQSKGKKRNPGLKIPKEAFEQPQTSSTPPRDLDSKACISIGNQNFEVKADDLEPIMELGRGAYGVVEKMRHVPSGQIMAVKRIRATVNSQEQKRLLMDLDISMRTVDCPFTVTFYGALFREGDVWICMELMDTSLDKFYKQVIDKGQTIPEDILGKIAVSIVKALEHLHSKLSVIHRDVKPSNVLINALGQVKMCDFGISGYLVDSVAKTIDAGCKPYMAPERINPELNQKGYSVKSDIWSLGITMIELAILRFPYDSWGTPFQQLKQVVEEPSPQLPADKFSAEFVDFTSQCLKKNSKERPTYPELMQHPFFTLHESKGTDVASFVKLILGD

[3] = biological target: T3, Receptor-type tyrosine-protein kinase FLT3 (Homo sapiens, UniProt P36888)
T3 sequence (P36888 whole entry): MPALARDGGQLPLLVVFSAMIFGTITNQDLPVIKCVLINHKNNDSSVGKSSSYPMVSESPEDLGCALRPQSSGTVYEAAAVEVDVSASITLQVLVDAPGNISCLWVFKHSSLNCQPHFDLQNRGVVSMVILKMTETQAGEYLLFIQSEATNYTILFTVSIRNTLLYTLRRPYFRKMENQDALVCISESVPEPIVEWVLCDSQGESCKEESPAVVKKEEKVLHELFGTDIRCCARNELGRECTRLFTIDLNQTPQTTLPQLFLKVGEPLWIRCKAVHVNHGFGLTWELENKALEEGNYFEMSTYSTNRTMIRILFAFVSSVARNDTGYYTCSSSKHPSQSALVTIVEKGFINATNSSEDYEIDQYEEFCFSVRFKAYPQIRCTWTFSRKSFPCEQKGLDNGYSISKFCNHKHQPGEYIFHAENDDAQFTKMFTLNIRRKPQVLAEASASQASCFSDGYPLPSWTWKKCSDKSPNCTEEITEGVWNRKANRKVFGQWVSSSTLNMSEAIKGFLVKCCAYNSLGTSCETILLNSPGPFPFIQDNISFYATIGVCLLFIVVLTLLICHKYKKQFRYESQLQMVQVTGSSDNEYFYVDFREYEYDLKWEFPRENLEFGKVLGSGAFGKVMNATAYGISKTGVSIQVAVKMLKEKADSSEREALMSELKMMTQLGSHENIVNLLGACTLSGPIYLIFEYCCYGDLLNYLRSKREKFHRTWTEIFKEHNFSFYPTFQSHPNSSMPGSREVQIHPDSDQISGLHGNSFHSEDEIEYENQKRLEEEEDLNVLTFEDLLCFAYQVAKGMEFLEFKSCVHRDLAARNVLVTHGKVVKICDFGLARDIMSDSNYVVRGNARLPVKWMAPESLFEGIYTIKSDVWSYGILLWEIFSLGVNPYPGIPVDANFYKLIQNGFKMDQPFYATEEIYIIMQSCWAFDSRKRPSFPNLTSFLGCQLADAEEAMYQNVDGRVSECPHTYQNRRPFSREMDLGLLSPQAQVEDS

[4] = biological target: T4, Mitogen-activated protein kinase kinase kinase 3 (Homo sapiens, UniProt Q99759)
T4 sequence (Q99759 whole entry): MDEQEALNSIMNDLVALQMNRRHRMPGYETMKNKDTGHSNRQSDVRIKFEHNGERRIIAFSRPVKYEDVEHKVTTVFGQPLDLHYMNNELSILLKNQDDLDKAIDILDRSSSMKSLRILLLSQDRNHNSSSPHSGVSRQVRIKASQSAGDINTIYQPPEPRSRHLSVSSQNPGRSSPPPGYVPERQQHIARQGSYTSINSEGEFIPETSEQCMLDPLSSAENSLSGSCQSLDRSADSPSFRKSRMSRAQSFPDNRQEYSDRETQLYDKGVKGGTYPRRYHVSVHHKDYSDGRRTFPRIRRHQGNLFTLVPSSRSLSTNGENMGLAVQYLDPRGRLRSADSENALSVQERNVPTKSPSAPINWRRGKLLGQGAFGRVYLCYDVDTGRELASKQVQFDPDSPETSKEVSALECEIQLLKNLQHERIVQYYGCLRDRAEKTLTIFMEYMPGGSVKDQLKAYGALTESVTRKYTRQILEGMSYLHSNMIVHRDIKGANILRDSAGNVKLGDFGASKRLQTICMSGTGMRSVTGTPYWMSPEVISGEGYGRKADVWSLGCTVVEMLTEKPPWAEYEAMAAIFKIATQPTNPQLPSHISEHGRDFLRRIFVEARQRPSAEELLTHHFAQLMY
Further: in the data inactive means no Kd found up to 30 µM.

Kd [1]	Kd [2]	Kd [3]	Kd [4]	Compound
> 30 µM (inactive)	> 30 µM (inactive)	> 30 µM (inactive)	> 30 µM (inactive)	C[C@@H](Nc1cc(F)cc(F)c1)c1cc(C(=O)N(C)C)cc2c(=O)cc(N3CCOCC3)oc12 [AZD-8186]
> 30 µM (inactive)	> 30 µM (inactive)	> 30 µM (inactive)	> 30 µM (inactive)	Cc1cc([C@@H](C)Nc2ccccc2C(=O)O)c2nc(N3CCOCC3)cc(=O)n2c1 [AZD-6482]
0.084 µM	> 30 µM (inactive)	> 30 µM (inactive)	> 30 µM (inactive)	CCS(=O)(=O)N1CC(CC#N)(n2cc(-c3ncnc4[nH]ccc34)cn2)C1 [BARICITINIB]
> 30 µM (inactive)	> 30 µM (inactive)	> 30 µM (inactive)	> 30 µM (inactive)	CN1N=C(N)c2cn([C@@H]3O[C@H](COP(=O)(O)O)[C@@H](O)[C@H]3O)c3ncnc1c23 [TRICIRIBINE PHOSPHATE]
> 30 µM (inactive)	> 30 µM (inactive)		> 30 µM (inactive)	CNC(=O)c1cc(Oc2ccc(NC(=O)Nc3ccc(Cl)c(C(F)(F)F)c3)c(F)c2)ccn1 [REGORAFENIB]
> 30 µM (inactive)	> 30 µM (inactive)	12.5 µM (active)	> 30 µM (inactive)	O=C(Nc1ccc(-c2ccnc(Nc3ccc(N4CCOCC4)cc3)n2)cc1)C1CCCN1 (stereo not given) [XL-019]
> 30 µM (inactive)	> 30 µM (inactive)	> 30 µM (inactive)	> 30 µM (inactive)	CNS(=O)(=O)Nc1nccc(Cc2c(C)c3ccc(Oc4ncccn4)cc3oc2=O)c1F [AVUTOMETINIB]
> 30 µM (inactive)	> 30 µM (inactive)		> 30 µM (inactive)	Cc1cc(Nc2cc(N3CCN(C)CC3)nc(/C=C/c3ccccc3)n2)n[nH]1 [ENMD-2076]
> 30 µM (inactive)	> 30 µM (inactive)	> 30 µM (inactive)	> 30 µM (inactive)	CCCS(=O)(=O)Nc1ccc(F)c(C(=O)c2c[nH]c3ncc(-c4ccc(Cl)cc4)cc23)c1F [VEMURAFENIB]
> 30 µM (inactive)	> 30 µM (inactive)	> 30 µM (inactive)	> 30 µM (inactive)	COc1cc2nccc(Oc3ccc(NC(=O)NC4CC4)c(Cl)c3)c2cc1C(N)=O [LENVATINIB]
> 30 µM (inactive)	> 30 µM (inactive)	> 30 µM (inactive)	> 30 µM (inactive)	Cc1cc2c(F)c(Oc3ncnn4cc(OC[C@@H](C)OC(=O)[C@H](C)N)c(C)c34)ccc2[nH]1 [BRIVANIB ALANINATE]
> 30 µM (inactive)	> 30 µM (inactive)	> 30 µM (inactive)	> 30 µM (inactive)	Cc1ccc(S(=O)(=O)Nc2nc3ccccc3nc2Nc2ccc3nsnc3c2)cc1
> 30 µM (inactive)	> 30 µM (inactive)	> 30 µM (inactive)	> 30 µM (inactive)	Cc1c(F)cc(C(=O)NC2CC2)cc1-c1ccc(C(=O)NCC(C)(C)C)cn1 [LOSMAPIMOD]
> 30 µM (inactive)	> 30 µM (inactive)	0.627 µM (active)	> 30 µM (inactive)	COc1cc(N2CCC(N3CCN(C)CC3)CC2)ccc1Nc1ncnc(Nc2ccccc2S(=O)(=O)C(C)C)n1 [ASP-3026]
> 30 µM (inactive)				Nc1nc(N)c2nc(-c3cccc(O)c3)c(-c3cccc(O)c3)nc2n1 [TG100-115]
> 30 µM (inactive)	> 30 µM (inactive)	> 30 µM (inactive)	> 30 µM (inactive)	CCn1c(=O)c(-c2cc[nH]n2)cc2c(C)nc(N)nc21 [VOXTALISIB]
> 30 µM (inactive)	> 30 µM (inactive)	> 30 µM (inactive)	> 30 µM (inactive)	CC(=O)Nc1cccc(-n2c(=O)n(C3CC3)c(=O)c3c(Nc4ccc(I)cc4F)n(C)c(=O)c(C)c32)c1 [TRAMETINIB]
> 30 µM (inactive)	> 30 µM (inactive)	> 30 µM (inactive)	> 30 µM (inactive)	CCN1CCN(Cc2ccc(-c3cc4c(N[C@H](C)c5ccccc5)ncnc4[nH]3)cc2)CC1 [AEE-788]
> 30 µM (inactive)	> 30 µM (inactive)	> 30 µM (inactive)	> 30 µM (inactive)	O=C1NC(=O)/C(=C/c2ccc3nccc(-c4ccncc4)c3c2)S1 [GSK-1059615]
> 30 µM (inactive)				CCn1c(-c2nonc2N)nc2c(C#CC(C)(C)O)ncc(OC[C@H]3CCCNC3)c21 [GSK-690693]
> 30 µM (inactive)				CN1CCN(c2ccc3nc(-c4c(N)c5c(F)cccc5[nH]c4=O)[nH]c3c2)CC1 [DOVITINIB]
> 30 µM (inactive)	> 30 µM (inactive)		> 30 µM (inactive)	C1=C/COCc2cc(ccc2OCCN2CCCC2)Nc2nccc(n2)-c2cccc(c2)COC/1 [PACRITINIB]
> 30 µM (inactive)	> 30 µM (inactive)		> 30 µM (inactive)	Cc1nc(N)sc1-c1ccnc(Nc2ccc(N3CCOCC3)cc2)n1 [CYC-116]
> 30 µM (inactive)	> 30 µM (inactive)		> 30 µM (inactive)	OCCn1cc(-c2cnc3nnn(Cc4ccc5ncccc5c4)c3n2)cn1 [PF-04217903]
> 30 µM (inactive)	> 30 µM (inactive)		> 30 µM (inactive)	COc1cc2nccc(Oc3ccc(NC(=O)Nc4cc(C)on4)c(Cl)c3)c2cc1OC [TIVOZANIB]

Compound	Kd [1]	Kd [2]	Kd [3]	Kd [4]
C=CC(=O)N1CCC(Oc2cc3c(Nc4ccc(Cl)c(Cl)c4F)ncnc3cc2OC)CC1 [POZIOTINIB]	> 30 µM (inactive)	> 30 µM (inactive)	> 30 µM (inactive)	> 30 µM (inactive)
O=C(Nc1cccc(Cl)c1)Nc1ncc(CCNc2ncnc3ccsc23)s1 [SNS-314]	> 30 µM (inactive)	> 30 µM (inactive)		> 30 µM (inactive)
CN1CC[C@@H](c2c(O)cc(O)c3c(=O)cc(-c4ccccc4Cl)oc23)[C@@H]1CO	> 30 µM (inactive)	> 30 µM (inactive)	> 30 µM (inactive)	> 30 µM (inactive)
Cc1cn(-c2cc(NC(=O)c3ccc(C)c(Nc4nccc(-c5cccnc5)n4)c3)cc(C(F)(F)F)c2)cn1 [NILOTINIB]	> 30 µM (inactive)			
COC(=O)[C@@]1(O)C[C@H]2O[C@]1(C)n1c3ccccc3c3c4c(c5c6ccccc6n2c5c31)C(=O)NC4 [K-252A]	> 30 µM (inactive)		0.227 µM (active)	> 30 µM (inactive)

Reference: ChEMBL document CHEMBL3991601, “The target landscape of clinical kinase drugs” (Science, 2017)
